Measured values reported in paper PMC6950567, “Evaluation of Marine Diindolinonepyrane in Vitro and in Vivo: Permeability Characterization in Caco-2 Cells Monolayer and Pharmacokinetic Properties in Beagle Dogs” (Marine Drugs, 2019).
Entries after “also recorded” stand apart in the source; their conditions may differ.

How the values were obtained:
[1] = Tissue distribution after intravenous injection in beagle dogs; type: in vivo; conditions: 7.5 mg/kg
Description: Moreover, another three dogs were fasted for 24 h with water ad libidum for the tissue distribution study. 2,5-BHPA was administered by intravenous injection at 7.5 mg/kg. Subsequently, their brain, stomach (emptied of gastric contents), heart, large intestine (emptied of gastric contents), liver, kidneys, spleen, urine, lungs, spermary, small intestine (emptied of gastric contents), feces, muscle, bile of dogs were removed at 60 min after compound administration. The tissues were flushed with normal saline, dried, weighed, and homogenized in proper methanol (methanol:sample = 5:1, V/V). The tissue samples were centrifuged at 5000× g for 15 min at RT, and the supernatants were filtered with a 0.22 µm disposable syringe filter for HPLC detection.

[2] = molecular target: T1, P-gp (Homo sapiens, UniProt P08183); test: P-gp substrate assessment from Caco-2 bidirectional transport; type: in vitro ADME; conditions: suggested from Caco-2 transport with 0.1% BSA
T1 construct: host or cells: Caco-2
Description: The Caco-2 cell model was established successfully, and the transwell plate was then rinsed with HBSS solution three times and cultured in an incubator at 37 °C for 30 min to remove the interfering substances on the cell surface. For transfer in the AP→BL direction, 0.075 mL drug solution was added to the AP side as the supply pool, and 0.25 mL HBSS solution was added to the BL side as the receiving pool. In the BL→AP direction, 0.25 mL compound solution was added to the BL side as the supply pool, and 0.075 mL HBSS solution was added to the AP side as the receiving pool. The transwell plate was then cultured in an incubator at 37 °C for 2 h. Samples on the AP side and BL side were collected, respectively. Then, acetonitrile containing an internal label was added to each upper chamber to lyse transport membranes. The total recovery was calculated by collecting the amount of lead compound absorbed on the membrane surface or accumulated in the cell. Finally, the concentration of each sample was calculated as the ratio of the peak area between the compound and the inner target through mass spectrum analysis (API 4000). […] Vr is the volume in the receiving hole (mL); A is the transport membrane area; and C0 is the compound initiation concentration (µM). […]

[3] = Short-term stability in beagle dog plasma; type: in vitro ADME; conditions: 24 h, residual/initial
Description: The stability of 2,5-BHPA was assayed at 1, 100, and 400 mg/L. The short-term stability of 2,5-BHPA stored at 37 °C was determined after 24 h. Stability was defined as the amount of 2,5-BHPA residual after 24 h divided by the initial amount.

T1 sequence (P08183 whole entry): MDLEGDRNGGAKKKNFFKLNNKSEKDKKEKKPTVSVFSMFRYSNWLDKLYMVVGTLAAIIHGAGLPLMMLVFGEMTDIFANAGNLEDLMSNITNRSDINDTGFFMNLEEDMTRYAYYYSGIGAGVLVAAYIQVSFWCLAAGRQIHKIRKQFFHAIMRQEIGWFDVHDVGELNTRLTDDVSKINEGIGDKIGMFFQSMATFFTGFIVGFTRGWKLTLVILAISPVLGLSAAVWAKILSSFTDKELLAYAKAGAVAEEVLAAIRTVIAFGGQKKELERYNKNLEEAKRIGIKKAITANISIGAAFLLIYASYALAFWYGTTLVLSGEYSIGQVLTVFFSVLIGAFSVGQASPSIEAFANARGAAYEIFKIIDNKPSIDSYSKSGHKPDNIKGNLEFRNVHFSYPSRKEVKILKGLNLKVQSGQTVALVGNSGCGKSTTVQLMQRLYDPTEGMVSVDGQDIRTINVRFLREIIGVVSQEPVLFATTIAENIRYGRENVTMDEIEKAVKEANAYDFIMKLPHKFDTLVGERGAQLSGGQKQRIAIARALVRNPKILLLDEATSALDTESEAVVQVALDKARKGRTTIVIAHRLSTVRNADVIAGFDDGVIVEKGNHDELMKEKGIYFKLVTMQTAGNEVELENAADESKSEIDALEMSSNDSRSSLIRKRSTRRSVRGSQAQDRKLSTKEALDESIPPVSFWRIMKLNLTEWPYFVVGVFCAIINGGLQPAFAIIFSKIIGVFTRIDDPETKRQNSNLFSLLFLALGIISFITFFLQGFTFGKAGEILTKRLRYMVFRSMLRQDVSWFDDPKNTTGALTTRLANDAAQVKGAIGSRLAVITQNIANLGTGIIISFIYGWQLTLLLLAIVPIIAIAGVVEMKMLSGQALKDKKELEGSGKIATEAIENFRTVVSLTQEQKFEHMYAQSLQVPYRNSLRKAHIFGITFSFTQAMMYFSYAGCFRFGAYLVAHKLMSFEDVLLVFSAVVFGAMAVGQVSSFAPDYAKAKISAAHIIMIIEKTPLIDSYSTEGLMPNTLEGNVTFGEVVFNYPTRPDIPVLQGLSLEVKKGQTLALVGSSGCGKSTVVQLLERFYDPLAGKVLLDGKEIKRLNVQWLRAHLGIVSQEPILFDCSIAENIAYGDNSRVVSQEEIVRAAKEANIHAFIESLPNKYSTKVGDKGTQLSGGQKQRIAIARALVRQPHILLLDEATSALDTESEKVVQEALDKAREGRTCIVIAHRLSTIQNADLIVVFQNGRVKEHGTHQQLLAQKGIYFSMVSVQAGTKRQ

detection in the brain ([1]; 60 min after intravenous injection): detected in the brain | substrate of P-gp [2]: not a substrate of P-gp | Stability ([3]; 1.0 μg·mL^−1, 37 °C): 94.69 ± 5.37% | Stability ([3]; 100 μg·mL^−1, 37 °C): 98.39 ± 2.25% | Stability ([3]; 400 μg·mL^−1, 37 °C): 97.63 ± 5.91%
SMILES: CC(C)=CCCC(C)=CCCC1(C)Oc2c(c(O)cc3c2CN(CCCC(C(=O)O)N2Cc4c(cc(O)c5c4OC(C)(CCC=C(C)CCC=C(C)C)C(O)C5)C2=O)C3=O)CC1O (stereo not drawn) [2,5-BHPA, 2,5-Bis-[8-(4,8-dimethyl-nona-3,7-dienyl)-5,7-dihydroxy-8-methyl-3-keto-1,2,7,8-tertahydro-6H-pyran[a]isoindol-2-yl]-pentanoic acid]
concentration in different organs ([1]; 1 h after intravenous injection): concentration in the liver and bile was higher compared with other organs; also recorded: Lung, kidney, spleen, stomach, excrement, and urine contained moderate amounts; also recorded: highest 2,5-BHPA concentration level was detected in the liver
